Counter-ions that a name gives are not always drawn. Where only a bound is given, the exact number is not on record here.

A short description of one series: in vitro. Particulars: rat, gh3-tre-luc cells, AC50 (uM) modified / 1000.
`C=C(C)C(=O)OCCC(F)(F)C(F)(F)C(F)(F)C(F)(F)C(F)(F)C(F)(F)F` [6:2 Fluorotelomer methacrylate]: the CC50 at 24 h was > 90 µM. The same measure, in the same setting: the same measure for `Cc1cc(=O)oc2cc(N(C)C)ccc12` [7-(Dimethylamino)-4-methylcoumarin]: > 90 µM. As to `Nc1ccc2c(O)cc(S(=O)(=O)O)cc2c1` [7-Amino-4-hydroxynaphthalene-2-sulfonic acid], the midpoint of cytotoxicity, the CC50 at 24 h, lay at 89.3 µM. As for `CC(=O)OCC1=C(C(=O)O)N2C(=O)[C@@H](N)[C@H]2SC1` [7-Aminocephalosporanic acid], the CC50 at 24 h was > 20 µM. In the case of `CCN(CC)c1ccc2c(C)cc(=O)oc2c1` [7-Diethylamino-4-methylcoumarin], the CC50 at 24 h is > 90 µM. Consider `CCCCC(CC)CCC(CC(C)C)OS(=O)(=O)O` (centres unmarked) [7-Ethyl-2-methyl-4-undecanolsulfate, sodium salt], for which the CC50 at 24 h is > 90 µM. The same measure, in the same setting: in the case of `COC(C)(C)CCCC(C)CC=O` (centres unmarked) [7-Methoxy-3,7-dimethyloctanal] it was > 90 µM. On the same count and under the same terms, the same measure for `Cc1ccc2c(c1)OCC(=O)CO2` [7-Methyl-2H-1,5-benzodioxepin-3(4H)-one]: > 90 µM; for `Cn1cnc2ncnc(N)c21` [7-Methyladenine]: > 50 µM; for `Cc1cccc2c1cc1ccc3cccc4ccc2c1c34` [7-Methylbenzo(a)pyrene]: > 90 µM. On to `Cc1ccc2cccnc2c1` [7-Methylquinoline], for which the CC50 at 24 h is > 90 µM. Same read-out and setting: the same measure for `Cn1c(=O)c2[nH]c(Br)nc2n(C)c1=O` [8-Bromotheophylline]: > 50 µM; for `O=[N+]([O-])c1cc([N+](=O)[O-])c2ccc(S(=O)(=O)O)cc2c1O` [8-Hydroxy-5,7-dinitro-2-naphthalenesulfonic acid]: 65.4 µM; for `O=S(=O)(O)c1ccc(O)c2ncccc12` [8-Hydroxyquinoline-5-sulfonic acid hydrate (1:x)]: > 90 µM. With `COc1c2occc2cc2ccc(=O)oc12` [8-Methoxypsoralen], the CC50 at 24 h was > 50 µM.

`Cc1cccc2cccnc12` [8-Methylquinoline]: the CC50 at 24 h was > 90 µM. For the compound `O=[N+]([O-])c1cccc2cccnc12` [8-Nitroquinoline], the CC50 at 24 h was > 90 µM. On the same count and under the same terms, the same measure for `OCCC(F)(F)C(F)(F)C(F)(F)C(F)(F)C(F)(F)C(F)(F)C(F)(F)C(F)(F)F` [8:2 Fluorotelomer alcohol]: > 90 µM.

As to `Brc1c2ccccc2c(Br)c2ccccc12` [9,10-Dibromoanthracene], the CC50 at 24 h is > 5 µM. Consider `O=C1CCCc2c1cc1ccc3cccc4ccc2c1c34` [9,10-Dihydrobenzo[a]pyren-7(8H)-one], for which the half-maximal cytotoxic concentration (CC50) at 24 h was > 90 µM. For the compound `Nc1c2ccccc2nc2ccccc12` [9-Aminoacridine, monohydrochloride, monohydrate], the CC50 at 24 h was > 90 µM. The same measure, in the same setting: the same measure for `O=C(O)c1c2ccccc2cc2ccccc12` [9-Anthracenecarboxylic acid]: > 90 µM.

For the compound `OCc1c2ccccc2cc2ccccc12` [9-Anthracenemethanol], the CC50 at 24 h was > 90 µM. With `Brc1c2ccccc2cc2ccccc12` [9-Bromoanthracene], the CC50 at 24 h was > 90 µM. Consider `Brc1cc2ccccc2c2ccccc12` [9-Bromophenanthrene], for which the CC50 at 24 h is > 90 µM.

For the compound `N#Cc1c2ccccc2cc2ccccc12` [9-Cyanoanthracene], the CC50 at 24 h was > 90 µM.

As to `N#Cc1cc2ccccc2c2ccccc12` [9-Cyanophenanthrene], the CC50 at 24 h was > 90 µM.

Consider `C=CCCCCCCCCO` [9-Decen-1-ol], for which the CC50 at 24 h is > 90 µM. In the case of `C=CCCCCCCCCOC(C)=O` [9-Decenyl acetate], the CC50 at 24 h is > 90 µM. Take `CCn1c2ccccc2c2cc([N+](=O)[O-])ccc21` [9-Ethyl-3-nitro-9H-carbazole]: the CC50 at 24 h is > 90 µM. Regarding `O=C1c2ccccc2-c2ccccc21` [9-Fluorenone], the CC50 at 24 h is > 90 µM. On the same count and under the same terms, the same measure for `Cn1cnc2c(O)nc(N)nc21` [9-Methylguanine]: > 90 µM. The same measure, in the same setting: the same measure for `O=[N+]([O-])c1c2ccccc2cc2ccccc12` [9-Nitroanthracene]: > 90 µM. On the same count and under the same terms, the same measure for `CCCCCCCC/C=C\CCCCCCCC(=O)OCCCC` [9-Octadecenoic acid (9Z)-, butyl ester]: > 20 µM; for `Oc1cc2ccccc2c2ccccc12` [9-Phenanthrol]: 6.81 µM.

For the compound `c1ccc2c(c1)CCc1ccccc1N2` [10,11-Dihydro-5H-dibenz[b,f]azepine], the CC50 at 24 h is > 90 µM. Still for that read-out and setting: in the case of `O=Cc1c2ccccc2c(Cl)c2ccccc12` [10-Chloro-9-anthraldehyde] it was > 50 µM. On the same count and under the same terms, the same measure for `C=CCCCCCCCCC(=O)O` [10-Undecenoic acid]: > 90 µM. `OCCCCCCCCCCCCBr` [12-Bromo-1-dodecanol]: the CC50 at 24 h is > 90 µM. The same measure, in the same setting: the same measure for `O=C(O)CCCCCCCCCCCBr` [12-Bromododecanoic acid]: > 90 µM; for `CCCCCCC(O)CCCCCCCCCCC(=O)O` (centres unmarked) [12-Hydroxyoctadecanoic acid]: > 90 µM. For `O=C1CCCCCCCCCCOCCCCO1` [12-Oxahexadecanolide], the CC50 at 24 h is > 90 µM. As for `CC1=C(/C=C/C(C)=C/C=C/C(C)=C\C=O)C(C)(C)CCC1` [13-cis-Retinal], the CC50 at 24 h stood at 45.2 µM. In the case of `C[C@]12CC[C@@H]3c4ccc(O)cc4CC[C@H]3[C@@H]1CC[C@H]2O` [17alpha-Estradiol], the CC50 at 24 h was > 90 µM. For the compound `C#C[C@]1(O)CC[C@H]2[C@@H]3CCc4cc(O)ccc4[C@H]3CC[C@@]21C` [17alpha-Ethinylestradiol], the CC50 at 24 h was > 90 µM. Regarding `C[C@]12CC[C@@H]3c4ccc(O)cc4CC[C@H]3[C@@H]1CC[C@@H]2O` [17beta-Estradiol], the CC50 at 24 h was > 90 µM. Still for that read-out and setting: in the case of `C=C1CC[C@H](O)C/C1=C/C=C1\CCC[C@]2(C)[C@@H]([C@H](C)CC[C@@H](O)C(C)(C)O)CC[C@@H]12` [24R,25-Dihydroxyvitamin D3] it was 23.4 µM; in that of `C[C@H](CCCC(C)(C)O)[C@H]1CC[C@H]2[C@@H]3CC=C4C[C@@H](O)CC[C@]4(C)[C@H]3CC[C@]12C` [25-Hydroxycholesterol], > 50 µM; in that of `CC(C)(C)CC(C)(C)c1ccccc1O` [(1,1,3,3-Tetramethylbutyl)phenol (all isomers)], 31.1 µM. Same read-out and setting: the same measure for `CC(C)(C)NC(N)=O` [(1,1-Dimethylethyl)urea]: > 90 µM; for `O=C(c1ccccc1)C1(O)CCCCC1` [(1-Hydroxycyclohexyl)(phenyl)methanone]: > 90 µM. As to `CC1(C)[C@H]2CC[C@](C)(C2)[C@H]1O` [(1R)-endo-(+)-Fenchyl alcohol], the CC50 at 24 h was > 90 µM. Still for that read-out and setting: the same measure for `CC(C)[C@H]1CC[C@H](C)C[C@@H]1O` [(1S,2R,5S)-(+)-Menthol]: > 90 µM; for `COC(Cc1ccccc1)OC` [(2,2-Dimethoxyethyl)benzene]: > 90 µM. Compound `C=CC(=O)OCCn1c(=O)n(CCOC(=O)C=C)c(=O)n(CCOC(=O)C=C)c1=O` [(2,4,6-Trioxo-1,3,5-triazinane-1,3,5-triyl)triethane-2,1-diyl trisprop-2-enoate] showed a CC50 at 24 h of 4.99 µM. Still for that read-out and setting: the same measure for `N#CCc1ccc(Cl)cc1Cl` [(2,4-Dichlorophenyl)acetonitrile]: > 90 µM; for `COc1ccc(C(=O)c2ccc(O)cc2)c(OC)c1` [(2,4-dimethoxyphenyl)(4-hydroxyphenyl)methanone]: > 90 µM. Compound `C=C(C)C(=O)OCC[N+](C)(C)C` [(2-(Methacryloyloxy)ethyl)trimethylammonium chloride] yielded a CC50 at 24 h of 62.4 µM. Still for that read-out and setting: the same measure for `Cc1ccccc1OCC(=O)O` [(2-Methylphenoxy)acetic acid]: > 90 µM; for `CC(=Cc1ccccc1)[N+](=O)[O-]` [(2-Nitro-1-propenyl)benzene]: 10.3 µM; for `N#CCc1ccccc1[N+](=O)[O-]` [(2-Nitrophenyl)acetonitrile]: > 90 µM. Still for that read-out and setting: the same measure for `ClC/C=C/CCl` [(2E)-1,4-Dichlorobut-2-ene]: > 90 µM; for `OC/C(Br)=C(\Br)CO` [(2E)-2,3-Dibromo-2-butene-1,4-diol]: > 90 µM; for `CCCCCCC/C=C/C=O` [(2E)-2-Decenal]: > 90 µM. On to `CCC/C=C/C=O` [(2E)-2-Hexenal], for which the CC50 at 24 h was > 90 µM. On to `CC(C)=CCC/C(C)=C/COC=O` [(2E)-3,7-Dimethylocta-2,6-dien-1-yl formate], for which the CC50 at 24 h was > 90 µM.

For the compound `CCC(=O)OC/C=C/c1ccccc1` [(2E)-3-Phenylprop-2-en-1-yl propanoate], the CC50 at 24 h was > 90 µM. `CCCCCC(O)/C=C/C=O` (centres unmarked) [(2E)-4-Hydroxy-2-nonenal]: the cytotoxic concentration (CC50) at 24 h is > 50 µM. Consider `C/C=C/C=C/C=O` [(2E,4E)-2,4-Hexadienal], for which the CC50 at 24 h was > 90 µM. On the same count and under the same terms, the same measure for `C/C=C/C=C/CO` [(2E,4E)-Hexa-2,4-dien-1-ol]: > 90 µM; for `CC/C=C\CC/C=C/C(OCC)OCC` [(2E,6Z)-1,1-diethoxynona-2,6-diene]: > 90 µM. Still for that read-out and setting: in the case of `CC[C@@H](N)CO` [(2R)-2-Aminobutan-1-ol] it was > 100 µM; in that of `CCCCCC[C@@H](CCC)C(=O)O` [(2R)-2-Propyloctanoic acid], > 50 µM; in that of `O=C(O)[C@@H](S)[C@H](S)C(=O)O` [(2R,3R)-2,3-Dimercaptosuccinic acid], 22.8 µM.

Staying with this series, now noted: rat, gh3-tre-luc cells, AC50 (uM) modified / 1000, Tox21_110001=Tox21_110815; viability, 1 nM T3 present, 24 h.
For the compound `COc1ccc2c(c1OC)C(=O)O[C@H]2[C@@H]1c2cc3c(cc2CCN1C)OCO3` [(1S,9R)-beta-Hydrastine], the CC50 at 24 h was > 50 µM.

Staying with this series, now noted: rat, gh3-tre-luc cells, AC50 (uM) modified / 1000, Tox21_110001=Tox21_113161; viability, 1 nM T3 present, 24 h.
With `C[C@]12CCC(=O)C=C1CC[C@@H]1[C@@H]2CC[C@@]2(C)[C@H]1CC[C@]2(C)O` [17-Methyltestosterone], the CC50 at 24 h is > 50 µM.

Still in this series, the particulars now being: rat, gh3-tre-luc cells, AC50 (uM) modified / 1000, Tox21_110001=Tox21_400058; viability, 1 nM T3 present, 24 h.
In the case of `C[C@]12CCC(=O)C=C1CC[C@@H]1[C@@H]2CC[C@@]2(C)[C@H]1CC[C@]2(C)O` [17-Methyltestosterone], the CC50 at 24 h was > 90 µM.

These data come from PMC6792352, “Limited Chemical Structural Diversity Found to Modulate Thyroid Hormone Receptor in the Tox21 Chemical Library” (Environmental Health Perspectives, 2019).
